Reference: publication PMC8954547, “Nonpeptidic Z360-Analogs Tagged with Trivalent Radiometals as Anti-CCK2R Cancer Theranostic Agents: A Preclinical Study” (Pharmaceutics, 2022)

Columns and labels:
HEK293-CCK2i4svR cells = experiment: Radioligand uptake and internalization in HEK293-CCK2i4svR cells; assay type: cell-based, human
Protocol: A day before the experiment, HEK293-CCK2i4svR cells were seeded in six-well plates. The next day, cells were rinsed with ice-cold internalization medium (IM: DMEM Glutamax-I, supplemented by 1% (v/v) FBS) and then the fresh medium was added (1.2 mL) at 37 °C. A further portion of IM (150 µL) was added in the upper well-row, and DG2 solution in IM (150 µL) was added in the lower row (to a final concentration of 1 μM; non-specific series). Each of the test radioligands, [^67Ga]Ga/[^111In]In/[^177Lu]Lu-GAS1/3 and [^67Ga]Ga/[^111In]In-GAS2, was finally added (250 fmol total conjugates in 150 μL 0.5% BSA-PBS) in all the wells and the plates were incubated at for 1 h at 37 °C in an Incubator-Orbital Shaker unit (MPM Instr. SrI, Bernareggio, MI, Italy); [^111In]In-GAS1/2/3 were incubated for 15 min, 30 min, 1 h and 2 h. At the predetermined time points, the plates were placed on ice, the medium was collected, and the plates were rinsed with 0.5% BSA-PBS (1 mL). Cells were subsequently treated with an acid-wash solution (2 × 600 µL; 50 mM glycine buffer pH 2.8, 0.1 M NaCl) and the fractions collected (membrane-bound). After briefly washing with 0.5% BSA-PBS (1 mL), the cells were lysed with 1 N NaOH (2 × 600 µL), and the fractions were collected (internalized). The radioactivity content of collected fractions was counted in the gamma counter, and the percentage of internalized and membrane-bound fractions per time point were calculated with Microsoft Excel. Specific internalized and membrane-bound counts were determined by subtracting the respective non-specific (in the presence of 1 μM DG2) from the respective total counts. Results represent specific internalized/membrane bound ± SD of total added radioactivity per well from three experiments performed in triplicate.

[1] = tested on: SCID mice bearing twin HEK293-CCK2i4svR and wtHEK293 tumors; experiment: Biodistribution in SCID mice bearing twin HEK293-CCK2i4svR and wtHEK293 xenografts; assay type: in vivo
Method in brief: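 Uptake is expressed as %IA/g (mean ± SD, n = 4) from gamma counting of blood, organs and tumours collected at set times: 1, 4 and 24 h pi for ^67Ga, 4 and 24 h for ^111In (±gelofusine), 4–96 h for ^177Lu. Radioligands were given iv at 7–40 pmol to SCID mice bearing twin CCK2i4svR-transfected and wild-type HEK293 xenografts.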

[2] = tested on: HEK293-CCK2i4svR and wtHEK293 xenografts; experiment: SPECT/CT of HEK293-CCK2i4svR and wtHEK293 xenografts; assay type: in vivo, mice; conditions: 4 h and 24 h pi
Protocol: For SPECT/CT imaging, six mice bearing twin HEK293-CCK2i4svR and wtHEK293 tumors were injected in the tail vein with a bolus containing [^111In]In-GAS1/2/3 (100 μL, 9–12 MBq associated with 3 nmol total injected analog in-vehicle: saline/EtOH 9/1 v/v). Mice were euthanized at 4 h and 24 h pi. Tomographic SPECT/CT imaging was performed with the y-CUBE/x-CUBE systems (Molecubes, Belgium). The SPECT system is based on monolithic NaI detectors attached to SiPMs, with a 0.6 mm intrinsic resolution. The CT system is based on a structured CMOS detector of CsI with pixels of 75 µm and operates between 35–80 kVp, 10–500 µA tube current, with a 33 µm fixed focal spot size. SPECT scans were acquired 4 h pi and 24 h pi, with a 40–50 min duration protocol based on the injected activity, and each SPECT scan was succeeded by a CT scan, following General-Purpose protocol under 50 kVp, for co-registration purposes. SPECT images were reconstructed using the MLEM reconstruction method with a 250 µm voxel size and 500 iterations. CT images were reconstructed using the ISRA reconstruction method with a 100 µm voxel size.
Images were exported and post-processed on VivoQuant software, version 4.0 (Invicro, Boston). A smoothing median filter (0.6 mm, spherical window) was applied to the images, and the bladder was removed for consistency purposes. Normalization of images was performed (i.e., all images having the same color scale range values) to achieve a direct visual comparison between the different groups.

Biodistribution, Blood ([1]; 4 h pi): 2.42 ± 0.94 %IA/g
Biodistribution, CCK2i4svR(+) Tumor ([1]; 4 h pi): 19.83 ± 1.35 %IA/g
Biodistribution, CCK2i4svR(-) Tumor ([1]; 4 h pi): 0.85 ± 0.37 %IA/g
Biodistribution, Femur ([1]; 4 h pi): 0.60 ± 0.14 %IA/g
Biodistribution, Heart ([1]; 4 h pi): 0.81 ± 0.28 %IA/g
Biodistribution, Intestines ([1]; 4 h pi): 1.66 ± 0.33 %IA/g
Biodistribution, Kidneys ([1]; 4 h pi): 9.32 ± 0.68 %IA/g
Biodistribution, Liver ([1]; 4 h pi): 2.78 ± 0.27 %IA/g
Biodistribution, Lungs ([1]; 4 h pi): 1.36 ± 0.37 %IA/g
Biodistribution, Muscle ([1]; 4 h pi): 0.31 ± 0.13 %IA/g
Biodistribution, Pancreas ([1]; 4 h pi): 0.86 ± 0.23 %IA/g
Biodistribution, Spleen ([1]; 4 h pi): 0.69 ± 0.12 %IA/g
Biodistribution, Stomach ([1]; 4 h pi): 0.91 ± 0.39 %IA/g
Biodistribution, Blood ([1]; 24 h pi): 0.08 ± 0.01 %IA/g
Biodistribution, CCK2i4svR(+) Tumor ([1]; 24 h pi): 11.53 ± 1.93 %IA/g
Biodistribution, CCK2i4svR(-) Tumor ([1]; 24 h pi): 0.40 ± 0.21 %IA/g
Biodistribution, Femur ([1]; 24 h pi): 0.27 ± 0.09 %IA/g
Biodistribution, Heart ([1]; 24 h pi): 0.16 ± 0.02 %IA/g
Biodistribution, Intestines ([1]; 24 h pi): 0.48 ± 0.14 %IA/g
Biodistribution, Kidneys ([1]; 24 h pi): 4.15 ± 1.06 %IA/g
Biodistribution, Liver ([1]; 24 h pi): 1.07 ± 0.26 %IA/g
Biodistribution, Muscle ([1]; 24 h pi): 0.08 ± 0.01 %IA/g
Biodistribution, Pancreas ([1]; 24 h pi): 0.17 ± 0.04 %IA/g
Biodistribution, Spleen ([1]; 24 h pi): 0.43 ± 0.09 %IA/g
Biodistribution, Stomach ([1]; 24 h pi): 0.35 ± 0.21 %IA/g
Background clearance / excretion route ([1]; mouse, in vivo): predominantly cleared via the kidneys
SPECT/CT uptake in CCK2i4svR expressing tumors [2]: Intense uptake
SPECT/CT uptake in wtHEK293 tumors devoid of CCK2i4svR expression [2]: no uptake is evident
SMILES: CC(C)(C)C(=O)CN1C(=O)[C@H](NC(=O)Nc2cccc(C(=O)NCCOCCOCCOCCNC(=O)[C@@H](CCC(=O)O)NC(=O)CCC(C(=O)O)N3CCN(CC(=O)[O-])CCN(CC(=O)[O-])CCN(CC(=O)[O-])CC3)c2)CN(C2CCCCC2)c2ccccc21.[111In+3] (stereo partly shown) [[^111In]In-GAS3]
Internalized to membrane-bound ratio (HEK293-CCK2i4svR cells): 4.1
Internalized fraction (HEK293-CCK2i4svR cells; 1 h 37 °C, specific): 11.12 ± 0.79 % of total added activity
Cell uptake (internalized + membrane-bound) (HEK293-CCK2i4svR cells; 1 h 37 °C, specific, of total added activity): 13.81 ± 0.89%
